{"source": "patent US6319910A", "about": "“Method for inhibiting cyclooxygenase-2 and tumor necrosis factor alpha” (Hospital for Joint Diseases, priority 1998, dated 2001)", "key": {"[1]": {"system": "NOS", "conditions": "previously shown; words; cited from earlier work"}, "[2]": {"system": "OA-affected cartilage", "assay": "Spontaneous nitrite/nitric oxide release by OA-affected cartilage (ex vivo organ culture)", "assay_type": "cell-based, human", "method": "(§1) Human osteoarthritis affected cartilage spontaneously release nitric oxide (NO) and PGE2 in the medium as previously reported (Amin et al, 1995a; 1997a). The OA-organ cultures were set up as described (Amin et al, 1995a; 1997a). Briefly, total knee articular cartilage from tibial plateau and femoral condyle were harvested from OA-affected patients. The cartilage was mixed and cut into 3-mm discs and 4-6 discs were placed in triplicate or quadruplicate, in a 24-well plate in 2.0 ml of Ham's F-12 medium supplemented with 0.2% endotoxin free human albumin, 10 mM Hepes pH 7.4 and antibiotics in the presence of various modulators, as previously described (Amin et al, 1995a; 1997a). CMT-8 was used at pharmacologically relevant concentrations in DMSO (<0.01% final concentration) as carrier. An equivalent amount of DMSO was also added in the control cultures.\n(§2) The p value between control and CMT-8 treated values for PGE2≤0.1 (insignificant) whereas the p values between NMMA treated cartilage and CMT-8 treated cartilage was ≤0.001 (significant). The data are represented as mean±SD as examined by T test when n=3. Data represent±SD value as determined by Student's t test n=4. The P values described are compared with control unstimulated OA-cartilage. The data represents one of the two similar experiments. P values for PGE2 and Nitrite=^a≤0.5; ^b≤0.1; ^c≤0.05; ^d≤0.01."}, "[3]": {"system": "COX-2", "assay": "COX-2 expression in cells/cartilage (general statement)", "assay_type": "cell-based", "conditions": "words"}, "[4]": {"system": "OA-affected cartilage", "assay": "Spontaneous PGE2 release by OA-affected cartilage (ex vivo organ culture)", "assay_type": "cell-based, human", "method": "as §1, §2"}, "[5]": {"system": "bovine chondrocytes", "assay": "Nitrite (NO) production in LPS stimulated bovine chondrocytes", "assay_type": "cell-based", "conditions": "FIGS. 3 and 9; LPS 100 μg/ml; words"}, "[6]": {"system": "bovine chondrocytes", "assay": "PGE2 production in LPS stimulated bovine chondrocytes (radioimmunoassay)", "assay_type": "cell-based", "conditions": "FIGS. 3 and 9, words", "method": "After 48 hours the medium was changed and the cells were incubated with CMT-3 or N-monomethyl arginine (NMMA) for 2 hours before stimulating them with 100 μg/ml LPS. DMSO was used as a carrier for the modulators and the DMSO concentration was maintained (<0.01% v/v) in the cultures. Equivalent amounts of DMSO was also added to the control cultures. The levels of COX-2 dependent PGE2 release was assayed after 72 hrs by radioimmunoassay. […] The data represents mean±SD which was evaluated by T test where n=3."}, "[7]": {"system": "RAW 264.7 cells", "assay": "PGE2 production/accumulation in LPS-stimulated RAW 264.7 cells", "assay_type": "cell-based, murine", "conditions": "for inhibition at 10 µg/mL: Mus musculus, RAW264.7, 16 h, read-out: PGE2 % Inhibition or (Increase)", "method": "Murine macrophages (RAW 263.7 cells) which were grown in Dulbecco's modified eagle medium (DMEM) containing 10% fetal bovine serum, 2 mM glutamine, 50 U/ml penicillin and 50 μg/ml streptomycin, were stimulated with 100 ng/ml LPS to induce both NOS and COX-2 at 16 hr. […] The data presented in FIG. 1 represents mean±SD as examined by T test were n=3.\nThe effects of CMTs 1, 2, 3, 5 and 8 on PGE2 and NO accumulation in RAW 264.7 cells were further evaluated as described above for CMT-3. […]"}, "[8]": {"system": "NOS", "assay": "NOS expression in LPS-stimulated murine macrophages", "assay_type": "cell-based", "conditions": "FIG. 2; LPS 100 ng/ml; words", "method": "RAW 263.7 cells were grown as previously described (Amin et al, 1995b). Murine macrophages stimulated with 100 ng/ml LPS were incubated with CMT-3 or tunicamycin (a glycosylation inhibitor). […] Nitrite and PGE2 were estimated as previously described (Amin et al, 1995b). It is quite possible that CMT-3 may inhibit COX-2 and PGE2 production by post translational modification of COX-2 which may be similar to tunicamycin inhibition. The data represents the mean±SD evaluated by T test (n=3)."}, "[9]": {"conditions": "human OA-affected cartilage, words"}, "[10]": {"conditions": "Experiment II, LPS 100 ng/ml, compound 10 μg/ml, 16 hours"}}, "note": "Entries after “also recorded” stand apart in the source; their conditions may differ. Where two headings read alike, the source gives them in different places.", "data": [{"smiles": "NC(=O)C1=C(O)C2(O)C(=O)C3=C(O)c4c(O)cccc4CC3CC2CC1=O", "note": "(stereo not shown) [CMT-3, 6-demethyl-6-deoxy-4-dedimethylaminotetracycline]", "values": [{"measurement": "NOS activity", "setting": "[1]", "value": "inhibit NOS activity"}, {"measurement": "Nitrite", "setting": "[2]; Table 2, 5 μg/ml", "value": "75.0 ± 25.0", "unit": "µM"}, {"measurement": "Effect on NO production", "setting": "[2]; [9]", "value": "significantly inhibit; also recorded: inhibiting NO production"}, {"measurement": "Effect on COX-2 expression", "setting": "[3]", "value": "inhibits COX-2 expression and PGE2 production"}, {"measurement": "inhibition at 5 µg/mL", "setting": "[4]; Homo sapiens, Table 2, 5 μg/ml", "value": 60, "unit": "%"}, {"measurement": "PGE2", "setting": "[4]; Table 2, 5 μg/ml", "value": "88.0 ± 21.4", "unit": "ng/mL"}, {"measurement": "Effect on PGE2 production", "setting": "[4]; [9]", "value": "significantly inhibit; also recorded: inhibits COX-2 expression and PGE2 production"}, {"measurement": "Effect on NO production", "setting": "[5]", "value": "inhibit NO and PGE2 production"}, {"measurement": "Effect on PGE2 production", "setting": "[6]; LPS 100 μg/ml, 72 hrs", "value": "inhibit NO and PGE2 production"}, {"measurement": "Effect on L-NMMA induced PGE2 up-regulation", "setting": "[6]", "value": "inhibits the L-NMMA induced PGE2 up-regulation"}, {"measurement": "PGE2 accumulation", "setting": "[7]; 16 h, 10 ug/mL", "value": "8.7 ± 2.4", "unit": "ng/mL"}, {"measurement": "PGE2 accumulation", "setting": "[7]; [10]", "value": "6.5 ± 0.5", "unit": "ng/mL"}, {"measurement": "Effect on L-NMMA induced PGE2 production", "setting": "[7]; FIG. 1, CMT-3+L-NMMA, LPS 100 ng/ml, words", "value": "blocks L-NMMA induced PGE2 production"}, {"measurement": "Effect on PGE2 production", "setting": "[7]; FIG. 1, LPS 100 ng/ml, 16 hours, words", "value": "blocks both NO and PGE2 production"}, {"measurement": "Effect on PGE2 production", "setting": "[7]; FIG. 2, LPS 100 ng/ml, words", "value": "inhibit"}, {"measurement": "inhibition at 10 µg/mL", "setting": "[7]; Experiment I, LPS 100 ng/ml, compound 10 μg/ml, 16 hours", "value": 66, "unit": "%"}, {"measurement": "inhibition at 10 µg/mL", "setting": "[7]; [10]", "value": 67, "unit": "%"}, {"measurement": "Effect on COX-2 activity", "setting": "[7]; independent of intracellular NO, words", "value": "inhibits COX-2 activity independent of intracellular NO concentrations"}, {"measurement": "Effect on NOS expression", "setting": "[8]", "value": "inhibit"}]}]}
